In patent publication US4560679A, “Organosilicon compounds and antitumor agents containing the compound as effective component” (Sanwa Kagaku Kenkyusho Co. Ltd., priority 1982, dated 1985):
Values after ≈ are worked out from the molar mass of the structure shown. Like-named read-outs stand apart in the source and are kept apart here.

Tests used:
acute toxicity = conditions: mouse, in vivo, ICR female mice, observed 7 days
Source text: Each of compounds according to the invention was suspended in 0.1% P-1570 aqueous solution of sugar ester or 0.5% CMC aqueous solution. The suspension abdominally or orally dosed to ICR female mice (weight: 20±1 g).

[1] = test system: B-16 melanoma carcinoma (B-16); assay: proliferation inhibiting effect in explantation (B-16); type: cell-based; conditions: Mus musculus, B16, 72 h, 3 days culture with compound, living cells by dye-exclusion (tripan blue)
Method: (§1) Test 1 (proliferation inhibiting effect in explantation)
(§2) Following carcinomata are employed.
(§3) (4) B-16 melanoma carcinoma (hereinafter referred to as "B-16").
(§4) 1×10^5 cells of each carcinoma are cultured for 24 hours in an ox serum eagle culture solution with use of a culture test tube and a carbon dioxide gas culturing device (5% CO2, 37° C.). After 24 hours, the used culture solution was flowed-out and each 0.1 ml of a freshly prepared culture solution containing a compound according to the invention was added to further continue the culture for 3 days. After completion of the culture, number of living cells was measured with use of a dye-exclusion method due to tripan blue dying. To each of control groups, 0.1 ml of the same culture solution but containing no compound according to the invention was added.
(§5) Concentrations on 50% inhibition of the carcinoma cells (IC50) were determined between the testing groups and control groups, according to the manner as stated above.

[2] = test system: Lewis lung carcinoma (LLC); assay: proliferation inhibiting effect in explantation (LLC); type: cell-based; conditions: 72 h, 3 days culture with compound, living cells by dye-exclusion (tripan blue)
Method: as §1, §2
(1) Lewis lung carcinoma (hereinafter referred to as "LLC"),
as §4, §5

[3] = test system: Ehrlich ascites carcinoma (EAC); assay: carcinoma cell weight inhibiting effect in mice (EAC); type: in vivo; conditions: ICR-CD mice; oral, 1/5 LD50 one time/day for 5 days; 21 days from final dosage
Source text: (§6) (2) Ehrlich ascites carcinoma (hereinafter referred to as "EAC"),
(§7) Test 2 (carcinoma cell weight inhibiting effect in mice)
(§8) B-16 and EAC were given to BDF and ICR-CD mice, respectively by a hypodermic injection. 1.0×10^5 cells on B-16 and 5.0×10^6 cells on EAC were given to each mouse. Each of the compounds according to the invention was orally dosed for 5 days in an amount of 1/5 LD50 (one time/day). After lapsed 21 days from the final dosage, the carcinoma of each mouse was exenterated, measured its weight and calculated a mean weight as the inhibiting ratio which is shown in the following Table.

[4] = test system: Ehrlich ascites carcinoma (EAC); assay: proliferation inhibiting effect in explantation (EAC); type: cell-based; conditions: 72 h, 3 days culture with compound, living cells by dye-exclusion (tripan blue)
Method: as §1, §2, §6, §4, §5

K.B. carcinoma (KB) = assay: proliferation inhibiting effect in explantation (KB); type: cell-based; conditions: 72 h, 3 days culture with compound, living cells by dye-exclusion (tripan blue)
Method: as §1, §2
(3) K.B. carcinoma (hereinafter referred to as "KB"), and
as §4, §5

[5] = test system: B-16 melanoma carcinoma (B-16); assay: carcinoma cell weight inhibiting effect in mice (B-16); type: in vivo; conditions: BDF mice; oral, 1/5 LD50 one time/day for 5 days; 21 days from final dosage
Source text: as §3, §7, §8

[6] = ip, abdominal dosage, read-out: Acute Toxicity LD50, Abdominal Dosage
[7] = oral dosage, read-out: Acute Toxicity LD50, Oral Dosage

SMILES | LD50 at 168 h (acute toxicity; [6]) | LD50 at 168 h (acute toxicity; [7]) | IC50 [1] | IC50 [2] | inhibiting ratio (carcinoma weight), EAC [3] | IC50 [4] | IC50 (K.B. carcinoma (KB)) | inhibiting ratio (carcinoma weight), B-16 [5]
CNCCSCC[Si](C)(C)C [SKK-009] | 189 mg/kg | 800 mg/kg | – | – | – | – | – | –
C[Si](C)(C)CCSCCNC1CCCCC1 [SKK-010] | 152 mg/kg | 825 mg/kg | – | – | – | – | – | –
C=CCNCCSCC[Si](C)(C)C [SKK-011] | 134 mg/kg | 846 mg/kg | – | – | – | – | – | –
C[Si](C)(C)CCSCCNC(=O)c1ccccc1 [SKK-012] | 1190 mg/kg | > 2000 mg/kg | 16 µg/mL (≈ 56.8 µM) | 4.3 µg/mL (≈ 15.3 µM) | 76 | 15 µg/mL (≈ 53.3 µM) | 17 µg/mL (≈ 60.4 µM) | 62
C[Si](C)(C)CCSCCNC(=O)c1cccnc1 [SKK-021] | < 500 mg/kg | > 2000 mg/kg | < 5 µg/mL | 5 µg/mL (≈ 17.7 µM) | 70 | 12 µg/mL (≈ 42.5 µM) | 10 µg/mL (≈ 35.4 µM) | 93
C[Si](C)(C)CCSCCNC(=O)c1ccco1 [SKK-022] | < 1000 mg/kg | > 2000 mg/kg | 20 µg/mL (≈ 73.7 µM) | 9 µg/mL (≈ 33.2 µM) | 65 | 15 µg/mL (≈ 55.3 µM) | 17 µg/mL (≈ 62.6 µM) | 58
C[Si](C)(C)CCSCCNC(=O)c1cccs1 [SKK-023] | > 1000 mg/kg | > 2000 mg/kg | – | – | – | – | – | –
C[Si](C)(C)CCSCCNC(=O)c1cccc2ccccc12 [SKK-024] | > 2000 mg/kg | > 3000 mg/kg | 25 µg/mL (≈ 75.4 µM) | 13 µg/mL (≈ 39.2 µM) | 62 | 18 µg/mL (≈ 54.3 µM) | 14 µg/mL (≈ 42.2 µM) | 60
CC(=O)NCCSCC[Si](C)(C)C [SKK-025] | ~100 mg/kg | 1000 to 2000 mg/kg | – | – | – | – | – | –
C[Si](C)(C)CCSCCNC(=O)C1CCCCC1 [SKK-026] | 500 to 1000 mg/kg | 1000 to 2000 mg/kg | – | – | – | – | – | –
CCCCCCCC(=O)NCCSCC[Si](C)(C)C [SKK-027] | 2000 to 3000 mg/kg | > 3000 mg/kg | – | – | – | – | – | –
Cc1ccc(S(=O)(=O)NCCSCC[Si](C)(C)C)cc1 [SKK-028] | > 2500 mg/kg | > 3000 mg/kg | 14 µg/mL (≈ 42.2 µM) | 14 µg/mL (≈ 42.2 µM) | 55 | 30 µg/mL (≈ 90.5 µM) | 10 µg/mL (≈ 30.2 µM) | 85
